Test results as given in patent US8987449B2, “Medicine for treating ischemic brain injury and its sequelae, and preparation method thereof” (Haimin Lei, priority 2011, dated 2015).

Assays:
ICR mice = assay: Buccal respiration duration of mice after head cutting (4° C. icy water swimming model); assay type: in vivo, mouse; conditions: control 32.45 ± 5.49
Procedure: ICR mice, half female and half male, weighing 19-21 g, certificate No.: SCXK (Jing) 2006-0009, provided by BeiJing Vital River Laboratories.
LQC-T4, tetramethylpyrazine (TMP), vanillic acid, Nimodipine (ShanDong XinHua Pharmaceutical CO., Ltd, batch No.: 0908164)
160 male ICR mice were divided into 8 groups randomly by weight, each of which contained 20 mice, wherein 0.5% CMC-NA (0.2 ml·10 g^−1) was administrated intragastrically to the blank control group; 6.7 mg·kg^−1 Nimodipine (0.2 ml·10 g^−1) was administrated intragastrically to the positive control group; 100 mg·kg^−1 TMP (0.2 ml·10 g^−1) was administrated intragastrically to the TMP group, three different dosage of 200 mg·kg^−1, 100 mg·kg^−1, 50 mg·kg^−1 were administrated intragastrically to the LQC-T4 (0.2 ml·10 g^−1) group relatively, and 125 mg·kg^−1 TMP+80 mg·kg^−1 vanillitc acid (0.2 ml·10 g^−1) was administrated intragastrically respectively. The medicines were continuously administrated once a day for 10 days.
The literature was referred to: [LiuZhenquan, SunHui, Xuqiuping, etc., Experimental Study on the Brain-Protective Effect of the Effective Fraction of Naoxin Formula in the Mouse Model of with Load-Bearing Swimming in Cold Water, Journal of Beijing University of Traditional Chinese Medicine [J], 2004, 27(4): 54-56] and the method recorded therein was improved. The head was rapidly cut with a scissor at post mortem when the mouse swam in 4° C. icy water for 3 min after the final administration. After head being cut, the buccal respiration duration of mouse was recorded.
The SAS 8.2 statistical software was used to carry out the one-way ANOVA variance analysis and the difference among the groups were compared by t-test.

VEGF = VEGF content of MCAO rats (kit, 450 nm); assay type: in vivo, rat; conditions: brain homogenate, model group 18.28 ± 1.62
Text: 1.1 Experimental animal and 1.2 Medicine to be tested: the same as effect example 6
1.3 Experimental reagents: PBS, VEGF kit
1.4 Experimental instruments: nylon fishing wire having a diameter of 0.25 mm, German; enzyme-labeling instrument (Finland, Thermo BioAnalysis Company's product, Multiskan MK3 model); surgical instruments, Surgical Instrument Factory of Shanghai Medical Apparatus And Instruments CO, LTD.
2.1 The preparation of re-perfusion model of middle cerebral artery occlusion of a rat: the same as effect example 6
2.2 The judgment on whether the model was successful and 2.3 Grouping and administration: the same as effect example 6
2.4 Taking Material and treatment: the same as effect example 6
As to VEGF, it is detected using enzyme-labeling instrument at 450 nm according to the kit.
The SAS 8.2 statistical software was used to carry out the one-way ANOVA variance analysis and the differences among the groups were compared by t-test.

MCAO rats [1] = assay: Grip strength test of the forelimb of MCAO rats; assay type: in vivo, rat; conditions: for Grip value (g) (3 d): model group 317.01 ± 53.81; for Grip value (g) (7 d): model group 285.58 ± 80.02
Text: 140 healthy SD male rats, weighing 280-300 g, provided by Beijing Vital River Laboratories, certificate No.: SCXK (Jing) 2002-2003. Nylon fishing wire, diameter 0.25 mm, German; YLS-13A, grip strength meter for mice and rats, Shandong Science Technology Instrument Station. The method of [Koizumi J, Yoshida […]. Experimental studies of ischemia brain edema, I: A new experimental model of cerebral embolism in rats in which recirculation can be introduced in the ischemic area[J]. […] After the rats were anesthetized and the skin thereof was disinfected by ethanol. By cutting right in the middle of the neck, the right common carotid artery, internal carotid artery and external carotid artery were separated and the common carotid artery and external carotid artery were ligated. The internal carotid artery was clamped with a bulldog clamp. A cut was made at the crotch of the external carotid artery and the internal carotid artery followed by releasing the bulldog clamp. […] Next, the external carotid artery was ligated and the nylon wire was fixed. In sham operation group, the right common carotid artery, the external carotid artery and the internal carotid artery were only exposed and separated. The rats were routinely raised in different cages. 0.5 ml penicillin was continuously injected into every mouse for three days after the surgery. […] The rats getting 1-3 point were selected for the subsequent experiment. The MCAO rats having the same point were distributed randomly and averagely to each experimental group. […] Evaluated was the change of the grip strength of the forelimb after the cerebral ischemia. A rat was put onto the pulling board making the forepaws thereof grab the cross bar. Then the tester pulled the rat backward to make its body slide backward along the board until the release of the forepaws (during this process it was made sure that the waist of the rat carried no force). The biggest grip strength was read when the forepaws released. Test was carried out twice for every rat and the bigger value was taken. The third and the seventh days after the administration were as the observation time to carry out the test. The SPSS 11.0 software pack was used to carry out the statistical analysis of all the data. The comparison of the enumeration data was carried out with X^2 test P<0.05 had statistical meaning.

MCAO rats [2] = assay: Beam walking test of MCAO rats; assay type: in vivo, rat; conditions: 0-6 points; for beam walking Evaluation (3 d): model group 1.47 ± 0.84; for beam walking Evaluation (7 d): model group 1.92 ± 2.02
Text: 140 healthy SD male rats, weighing 280-300 g, provided by Beijing Vital River Laboratories, certificate No.: SCXK (Jing) 2002-2003. The method of [Koizumi J, Yoshida […]. Experimental studies of ischemia brain edema, I: A new experimental model of cerebral embolism in rats in which recirculation can be introduced in the ischemic area[J]. […] After the rats were anesthetized and the skin thereof was disinfected by ethanol. By cutting right in the middle of the neck, the right common carotid artery, internal carotid artery and external carotid artery were separated and the common carotid artery and external carotid artery were ligated. The internal carotid artery was clamped with a bulldog clamp. A cut was made at the crotch of the external carotid artery and the internal carotid artery followed by releasing the bulldog clamp. […] Next, the external carotid artery was ligated and the nylon wire was fixed. In sham operation group, the right common carotid artery, the external carotid artery and the internal carotid artery were only exposed and separated. The rats were routinely raised in different cages. 0.5 ml penicillin was continuously injected into every mouse for three days after the surgery. […] The rats getting 1-3 point were selected for the subsequent experiment. The MCAO rats having the same point were distributed randomly and averagely to each experimental group. […] Beam walking test was used to evaluate the motor coordination and the integration defect after the cerebral ischemia damage. […] There was a dark box attached to one end of the beam and the rats were stimulated by noise to walk through the beam into the dark box. […] The rats were trained before the ischemia for 5 days until all the rats can get 6 point. The third and the seventh days after administration was set as the observation time to carry out the test. The SPSS 11.0 software pack was used to carry out the statistical analysis of all the data. The comparison of the enumeration data was carried out with X^2 test P<0.05 had statistical meaning.

[3] = 60 mg/kg intragastrically once a day
[4] = 120 mg/kg intragastrically once a day

COc1cc(C(=O)OCc2nc(C)c(C)nc2C)ccc1OCc1nc(C)c(C)nc1C [LQC-T4, (3,5,6-trimethylpyrazine-2-yl)methyl 3-methoxy-4-((3,5,6-trimethylpyrazine-2-yl)methoxy) benzoate]
respiration duration (ICR mice; 50 mg/kg intragastrically once a day for 10 days): 36.78 ± 5.40 s
respiration duration (ICR mice; 100 mg/kg intragastrically once a day for 10 days): 36.07 ± 3.15 s
respiration duration (ICR mice; 200 mg/kg intragastrically once a day for 10 days): 35.91 ± 4.25 s
VEGF (VEGF; 60 mg/kg intragastrically once per day for 10 days): 25.67 ± 9.69
VEGF (VEGF; 120 mg/kg intragastrically once per day for 10 days): 22.86 ± 8.42
Grip value (g) (3 d) (MCAO rats [1]; [3]): 395.50 ± 16.88 g
Grip value (g) (7 d) (MCAO rats [1]; [3]): 468.81 ± 78.14 g
Grip value (g) (3 d) (MCAO rats [1]; [4]): 386.57 ± 42.35 g
Grip value (g) (7 d) (MCAO rats [1]; [4]): 421.68 ± 59.87 g
beam walking Evaluation (3 d) (MCAO rats [2]; [3]): 3.6 ± 1.76
beam walking Evaluation (7 d) (MCAO rats [2]; [3]): 3.83 ± 1.70
beam walking Evaluation (3 d) (MCAO rats [2]; [4]): 2.88 ± 1.62
beam walking Evaluation (7 d) (MCAO rats [2]; [4]): 3.20 ± 1.66

COCCOC(=O)C1=C(C)NC(C)=C(C(=O)OC(C)C)C1c1cccc([N+](=O)[O-])c1 (stereo not shown) [Nimodipine, reference compound]
respiration duration (ICR mice; 6.7 mg/kg intragastrically once a day for 10 days): 37.23 ± 5.37 s
VEGF (VEGF; 30 mg/kg once per day for 10 days): 19.66 ± 2.34
Grip value (g) (3 d) (MCAO rats [1]; 30 mg/kg once a day): 409.08 ± 65.13 g
Grip value (g) (7 d) (MCAO rats [1]; 30 mg/kg once a day): 393.08 ± 59.61 g
beam walking Evaluation (3 d) (MCAO rats [2]; 30 mg/kg once a day): 2.71 ± 1.49
beam walking Evaluation (7 d) (MCAO rats [2]; 30 mg/kg once a day): 3.50 ± 1.71

Cc1nc(C)c(C)nc1C [TMP, tetramethylpyrazine, reference compound]
respiration duration (ICR mice; 125 mg/kg intragastrically once a day for 10 days): 37.26 ± 5.99 s
VEGF (VEGF; 37 mg/kg once per day for 10 days): 23.62 ± 6.68
Grip value (g) (3 d) (MCAO rats [1]; 37 mg/kg once a day): 415.19 ± 26.81 g
Grip value (g) (7 d) (MCAO rats [1]; 37 mg/kg once a day): 434.22 ± 50.23 g
beam walking Evaluation (3 d) (MCAO rats [2]; 37 mg/kg once a day): 2.86 ± 1.79
beam walking Evaluation (7 d) (MCAO rats [2]; 37 mg/kg once a day): 2.40 ± 2.32
